Measurements from patent US20110190503A1, “Thiazolopyridin-2-yloxy-phenyl and thiazolopyrazin-2-yloxy-phenyl amines as modulators of leukotriene A4 hydrolase” (Janssen Pharmaceutical NV, priority 2008, published 2011).
Like-named read-outs stand apart in the source and are kept apart here.

Columns and labels:
[1] = biological target: T1, recombinant human LTA4 hydrolase (rhLTA4H) (Homo sapiens, UniProt P09960); assay: Recombinant human LTA4 hydrolase assay for LTA4 hydrolase inhibitor activity; format: biochemical
T1 construct: made in house; host or cells: Spodoptera frugiperda (Sf-9) cells, recombinant baculovirus (pFastBac1)
T1 sequence (P09960 1-611): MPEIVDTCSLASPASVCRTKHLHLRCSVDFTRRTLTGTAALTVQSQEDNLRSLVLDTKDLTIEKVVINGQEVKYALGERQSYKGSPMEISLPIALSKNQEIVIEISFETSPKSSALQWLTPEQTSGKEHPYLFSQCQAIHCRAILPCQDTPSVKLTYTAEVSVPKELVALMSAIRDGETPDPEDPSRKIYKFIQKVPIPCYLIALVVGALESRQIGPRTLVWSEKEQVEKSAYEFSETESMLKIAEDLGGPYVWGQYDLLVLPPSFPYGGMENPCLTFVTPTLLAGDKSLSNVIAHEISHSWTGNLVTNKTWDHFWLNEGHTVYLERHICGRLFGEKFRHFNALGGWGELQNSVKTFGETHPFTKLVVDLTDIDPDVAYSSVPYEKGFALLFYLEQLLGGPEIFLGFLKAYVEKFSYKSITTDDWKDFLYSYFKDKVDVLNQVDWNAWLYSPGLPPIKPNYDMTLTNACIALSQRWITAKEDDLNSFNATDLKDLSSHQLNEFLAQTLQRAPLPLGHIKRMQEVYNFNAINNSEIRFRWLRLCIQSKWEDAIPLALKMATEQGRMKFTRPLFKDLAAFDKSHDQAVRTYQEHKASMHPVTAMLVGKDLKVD
In short: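 LTB4 formed from LTA4 substrate (free acid from the methyl ester) was quantified by enzyme immunoassay after a 30 min rt reaction. Enzyme was 10 ng Sf-9-expressed human LTA4 hydrolase, pre-incubated 10 min with compound.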

[2] = tested on: LTB4 production by calcium ionophore-stimulated murine blood; assay: LTB4 production by calcium ionophore-stimulated murine blood for LTA4H inhibitor activity; format: cell-based, CD-1 mice; conditions: Mus musculus
In short: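 LTB4 quantified by EIA in supernatants after murine (CD-1) heparinized whole blood was exposed to compound for 15 min, then to 7 μg/mL (final) A23187 for 30 min, all at 37° C. Reported values: single runs or means; three or more runs include SD.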

[3] = tested on: ex vivo stimulated LTB4 production; assay: Murine arachidonic acid-induced inflammation model: ex vivo stimulated LTB4 production (% Inh. LTB4); conditions: Mus musculus; female Balb/c mice, 30 mg/kg oral gavage; blood taken 3 h after arachidonic acid, ex vivo A23187 stimulation; number of determinations in parentheses
In short: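 Female Balb/c mice got 30 mg/kg orally in 20% cyclodextran/H2O. Heparinized blood in RPMI-1640 was stimulated with A23187 ([…]) for 30 min at 37 °C. LTB4 was measured by ELISA as % inhibition versus vehicle-dosed mice.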

[4] = rhLTA4H, LTA4 substrate, LTB4 by immunoassay, single determination or average, read-out: IC50
[5] = murine blood diluted 1 in 15, calcium ionophore A23187, LTB4 by immunoassay, read-out: IC50

| IC50 [1, 4] [nM] | IC50 [2, 5] [nM] | Compound | inhibition at 30 mg/kg [3] [%] | IC50 [1] [nM] | IC50 [2] [nM] |
| --- | --- | --- | --- | --- | --- |
| 7.5 ± 4.6 | 18 ± 13 | CC(=O)N1C[C@@H]2C[C@H]1CN2CCOc1ccc(Oc2nc3ncccc3s2)cc1 [Example 14, 2-(4-{2-[(1S,4S)-5-Acetyl-2,5-diazabicyclo[2.2.1]hept-2-yl]ethoxy}phenoxy)[1,3]thiazolo[4,5-b]pyridine] | 84 |  |  |
| 29 | 31 | NC(=O)C1CCN(CCOc2ccc(Oc3nc4ncccc4s3)cc2)CC1 [Example 31, 1-{2-[4-([1,3]Thiazolo[4,5-b]pyridin-2-yloxy)phenoxy]ethyl}piperidine-4-carboxamide] | 79.8 |  |  |
| 8.9 | 22 | O=C1CCCN1C1CCN(CCOc2ccc(Oc3nc4ncccc4s3)cc2)CC1 [Example 32, 1-(1-{2-[4-([1,3]Thiazolo[4,5-b]pyridin-2-yloxy)phenoxy]ethyl}piperidin-4-yl)pyrrolidin-2-one] | 89 |  |  |
| 3.9 | 170 | NC(=O)N1C[C@@H]2C[C@H]1CN2CCc1ccc(Oc2nc3ncccc3s2)cc1 [Example 45, (1S,4S)-5-{2-[4-([1,3]Thiazolo[4,5-b]pyridin-2-yloxy)phenyl]ethyl}-2,5-diazabicyclo[2.2.1]heptane-2-carboxamide] | 86.8 |  |  |
| 12 | 50 | CC(=O)N1CC2CN(CCc3ccc(Oc4nc5ncccc5s4)cc3)CC2C1 (stereo not drawn) [Example 73, 2-{4-[2-(5-Acetylhexahydropyrrolo[3,4-c]pyrrol-2(1H)-yl)ethyl]phenoxy}[1,3]thiazolo[4,5-b]pyridine] | 85.7 |  |  |
| 12 | 44 | CC(=O)N1C[C@@H]2C[C@H]1CN2CCc1ccc(Oc2nc3ncccc3s2)cc1 [Example 75, 2-(4-{2-[(1S,4S)-5-Acetyl-2,5-diazabicyclo[2.2.1]hept-2-yl]ethyl}phenoxy)[1,3]thiazolo[4,5-b]pyridine] | 89.5 |  |  |
| 6.3 | 55 | O=C1CCCN1C1CCN(Cc2ccc(Oc3nc4ncccc4s3)cc2)CC1 [Example 83, 1-{1-[4-([1,3]Thiazolo[4,5-b]pyridin-2-yloxy)benzyl]piperidin-4-yl}pyrrolidin-2-one] | 81 |  |  |
| 3.5 | 79 | NC(=O)N1C[C@@H]2C[C@H]1CN2Cc1ccc(Oc2nc3ncccc3s2)cc1 [Example 106, (1S,4S)-5-[4-([1,3]Thiazolo[4,5-b]pyridin-2-yloxy)benzyl]-2,5-diazabicyclo[2.2.1]heptane-2-carboxamide] | 90.5 |  |  |
|  |  | CC(=O)N[C@@H]1C[C@H]2CC[C@@H](C1)N2Cc1ccc(Oc2nc3ncccc3s2)cc1 [Example 109, meso-N-{(3-exo)-8-[4-([1,3]Thiazolo[4,5-b]pyridin-2-yloxy)benzyl]-8-azabicyclo[3.2.1]oct-3-yl}acetamide] | 84.8 | 0.97 | 60 |
|  |  | CC(=O)N[C@H]1C[C@H]2CC[C@@H](C1)N2Cc1ccc(Oc2nc3ncccc3s2)cc1 [Example 116, meso-N-{(3-endo)-8-[4-([1,3]Thiazolo[4,5-b]pyridin-2-yloxy)benzyl]-8-azabicyclo[3.2.1]oct-3-yl}acetamide] | 81 | 1 ± 0.51 | 22 ± 17 |
| 38 ± 17 | 120 ± 42 | CC(=O)N1C[C@@H]2C[C@H]1CN2Cc1ccc(Oc2nc3ncc(C)cc3s2)cc1 [Example 121, 2-(4-{[(1S,4S)-5-Acetyl-2,5-diazabicyclo[2.2.1]hept-2-yl]methyl}phenoxy)-6-methyl[1,3]thiazolo[4,5-b]pyridine] | 83 |  |  |
| 11 | 23 | CC(=O)N1C[C@H]2C[C@@H]1CN2Cc1ccc(Oc2nc3ncccc3s2)cc1 [Example 265, 2-(4-{[(1R,4R)-5-Acetyl-2,5-diazabicyclo[2.2.1]hept-2-yl]methyl}phenoxy)[1,3]thiazolo[4,5-b]pyridine] | 84.4 |  |  |
| 2 | 140 | NC(=O)N1C[C@H]2C[C@@H]1CN2Cc1ccc(Oc2nc3ncccc3s2)cc1 [Example 266, (1R,4R)-5-[4-([1,3]Thiazolo[4,5-b]pyridin-2-yloxy)benzyl]-2,5-diazabicyclo[2.2.1]heptane-2-carboxamide] | 78.6 |  |  |
| 3 | 110 | CC(=O)N1C[C@H]2C[C@@H]1CN2CCOc1ccc(Oc2nc3ncccc3s2)cc1 [Example 267, 2-(4-{2-[(1R,4R)-5-Acetyl-2,5-diazabicyclo[2.2.1]hept-2-yl]ethoxy}phenoxy)[1,3]thiazolo[4,5-b]pyridine] | 83.4 |  |  |

| Compound | IC50 [1, 4] [nM] | IC50 [2, 5] [nM] | inhibition at 30 mg/kg [3] [%] | IC50 [1] [nM] | IC50 [2] [nM] |
| --- | --- | --- | --- | --- | --- |
| CC(=O)N1C[C@H]2CC[C@@H](C1)N2CCc1ccc(Oc2nc3ncccc3s2)cc1 [Example 55, meso-2-(4-{2-[3-Acetyl-3,8-diazabicyclo[3.2.1]oct-8-yl]ethyl}phenoxy)[1,3]thiazolo[4,5-b]pyridine] | 4.8 | 55 | 83.7 |  |  |
